Literature values, collected in patent US12012625B2, “Method for producing bioactive composition” (Imam Abdulrahman Bin Faisal University, priority 2020, dated 2024).

Question: Which results are given for `Cc1cc(=O)c2c(O)c3c(O)cc(=O)c4c3c3c(c(Cl)c(O)c1c23)C(C)(C)C=4O` [chlorxanthomycin]?
Answer: growth inhibition (B. subtilis): inhibited the growth; growth inhibition (B. amyloliquefaciens): inhibited the growth
